Data: ChEMBL document CHEMBL5029157, “Identification of unprecedented ATP-competitive choline kinase inhibitors” (Bioorg Med Chem Lett, 2021)
pIC50: −log10 of the molar value. ≈ marks a conversion by molar mass, not a printed value.

What was measured:
[1] = Solubility of compound at pH 7; type: physicochemical; conditions: buffer
[2] = Metabolic stability in human liver microsomes assessed as intrinsic clearance; type: ADME, Microsome; conditions: read-out: CLH
[3] = Metabolic stability in rat hepatocyte assessed as intrinsic clearance; type: ADME, tissue-based; conditions: hepatocytes, read-out: CLH
[4] = biological target: Choline/ethanolamine kinase (Homo sapiens, UniProt Q9Y259)
Choline/ethanolamine kinase, sequence (Q9Y259 whole entry): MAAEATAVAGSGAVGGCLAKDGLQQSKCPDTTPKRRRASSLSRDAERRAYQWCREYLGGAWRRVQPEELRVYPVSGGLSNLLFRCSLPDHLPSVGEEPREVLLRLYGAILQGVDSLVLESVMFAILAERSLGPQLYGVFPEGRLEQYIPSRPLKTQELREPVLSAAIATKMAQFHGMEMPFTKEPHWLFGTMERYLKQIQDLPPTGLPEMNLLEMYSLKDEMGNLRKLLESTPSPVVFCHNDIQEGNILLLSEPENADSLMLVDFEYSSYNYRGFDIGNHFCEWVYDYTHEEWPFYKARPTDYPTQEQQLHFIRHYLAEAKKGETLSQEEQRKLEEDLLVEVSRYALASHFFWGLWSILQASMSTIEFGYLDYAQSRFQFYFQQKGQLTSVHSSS

solubility [1] | CLint scaled [2] | CLint scaled [3] | pIC50 [4] | Structure (SMILES)
– | – | – | < 5.00 | COc1cccc(NC(=O)[C@H]2CC[C@@H](n3cnc4c(N)nc(-c5ccc6cn[nH]c6c5)nc43)CC2)c1
9 µM (≈ 4.01 µg/mL) | – | – | – | Nc1nc(Cl)nc2c1ncn2[C@H]1CC[C@@H](C(=O)Nc2nc(C(F)(F)F)cs2)CC1
2 µM (≈ 0.916 µg/mL) | – | – | – | COc1cccc2sc(NC(=O)[C@H]3CC[C@@H](n4cnc5c(N)nc(Cl)nc54)CC3)nc12
3 µM (≈ 1.34 µg/mL) | – | – | – | Nc1nc(Cl)nc2c1ncn2[C@H]1CC[C@@H](C(=O)Nc2nc3ccc(F)cc3s2)CC1
– | – | – | < 5.00 | Nc1ncnc2c1ncn2[C@H]1CC[C@@H](C(=O)Nc2ccc(S(=O)(=O)C(F)(F)F)cc2)CC1
3 µM (≈ 1.33 µg/mL) | – | – | – | Nc1nc(Cl)nc2c1ncn2[C@H]1CC[C@@H](C(=O)Nc2nc3ccc(O)cc3s2)CC1
2 µM (≈ 0.751 µg/mL) | 12 mL/min/kg | 34 mL/min/kg | – | Cc1csc(NC(=O)[C@H]2CC[C@@H](n3cnc4c(N)nc(F)nc43)CC2)n1
– | – | – | < 5.00 | Nc1ncnc2c1ncn2[C@H]1CC[C@@H](C(=O)Nc2cccc(S(=O)(=O)C(F)(F)F)c2)CC1
– | – | – | < 5.00 | CS(=O)(=O)c1ccc(NC(=O)[C@H]2CC[C@@H](n3cnc4c(N)ncnc43)CC2)cc1
3 µM (≈ 1.41 µg/mL) | – | – | – | NC(=O)c1ccc2nc(NC(=O)[C@H]3CC[C@@H](n4cnc5c(N)nc(Cl)nc54)CC3)sc2c1
4 µM (≈ 1.78 µg/mL) | – | – | – | Nc1nc(Cl)nc2c1ncn2[C@H]1CC[C@@H](C(=O)Nc2nc3c(O)cccc3s2)CC1
– | – | – | < 5.00 | COc1cccc(NC(=O)[C@H]2CC[C@@H](n3cnc4c(N)nc(N5CCN(C)CC5)nc43)CC2)c1
– | – | – | < 5.00 | COc1cccc(NC(=O)[C@H]2CC[C@@H](n3cnc4c(N)nc(-c5ccc6[nH]ncc6c5)nc43)CC2)c1
5 µM (≈ 1.96 µg/mL) | – | – | – | Cc1cnc(NC(=O)[C@H]2CC[C@@H](n3cnc4c(N)nc(Cl)nc43)CC2)s1
5 µM (≈ 2.27 µg/mL) | – | – | – | Nc1nc(Cl)nc2c1ncn2[C@H]1CC[C@@H](C(=O)Nc2nc(-c3ccccc3)cs2)CC1

The next lines start with the compound.

Structure (SMILES) | solubility [1] | CLint scaled [2] | CLint scaled [3] | pIC50 [4]
NC(=O)Cc1cnc(NC(=O)[C@H]2CC[C@@H](n3cnc4c(N)nc(Cl)nc43)CC2)s1 | 97 µM (≈ 42.2 µg/mL) | – | – | –
CN1CCc2nc(NC(=O)[C@H]3CC[C@@H](n4cnc5c(N)nc(Cl)nc54)CC3)sc2C1 | 171 µM (≈ 76.4 µg/mL) | 33 mL/min/kg | 49 mL/min/kg | –
COc1ccc2nc(NC(=O)[C@H]3CC[C@@H](n4cnc5c(N)nc(Cl)nc54)CC3)sc2c1 | 1 µM (≈ 0.458 µg/mL) | – | – | –
Nc1nc(Cl)nc2c1ncn2[C@H]1CC[C@@H](C(=O)Nc2nc3c(s2)COCC3)CC1 | 4 µM (≈ 1.74 µg/mL) | – | – | –
Nc1nc(Cl)nc2c1ncn2[C@H]1CC[C@@H](C(=O)Nc2nc3c(s2)CNCC3)CC1 | 153 µM (≈ 66.2 µg/mL) | – | – | –
Nc1nc(Cl)nc2c1ncn2[C@H]1CC[C@@H](C(=O)Nc2nc3c(F)cc(F)cc3s2)CC1 | 1 µM (≈ 0.464 µg/mL) | – | – | –
CC1(C)Cc2nc(NC(=O)[C@H]3CC[C@@H](n4cnc5c(N)nc(Cl)nc54)CC3)sc2C(C)(C)N1 | 119 µM (≈ 58.2 µg/mL) | 78 mL/min/kg | 97 mL/min/kg | –
CC(C)N1CCc2nc(NC(=O)[C@H]3CC[C@@H](n4cnc5c(N)nc(Cl)nc54)CC3)sc2C1 | 73 µM (≈ 34.7 µg/mL) | – | – | –
CN1CCc2nc(NC(=O)[C@H]3CC[C@@H](n4cnc5c(N)nc(F)nc54)CC3)sc2C1 | 105 µM (≈ 45.2 µg/mL) | 13 mL/min/kg | 22 mL/min/kg | –
Cl.Nc1nc(Cl)nc2c1ncn2[C@H]1CC[C@@H](C(=O)Nc2nc3c(s2)CN(C2CC2)CC3)CC1 | 13 µM | – | – | –
NC(=O)Cc1ccc2nc(NC(=O)[C@H]3CC[C@@H](n4cnc5c(N)nc(Cl)nc54)CC3)sc2c1 | 2 µM (≈ 0.97 µg/mL) | – | – | –
Cc1csc(NC(=O)[C@H]2CC[C@@H](n3cnc4c(N)nc(Cl)nc43)CC2)n1 | 15 µM (≈ 5.88 µg/mL) | 12 mL/min/kg | 34 mL/min/kg | –
CC1(C)Cc2nc(NC(=O)[C@H]3CC[C@@H](n4cnc5c(N)nc(F)nc54)CC3)sc2C(C)(C)N1 | 200 µM (≈ 94.5 µg/mL) | 56 mL/min/kg | 84 mL/min/kg | –
Nc1nc(Cl)nc2c1ncn2[C@H]1CC[C@@H](C(=O)Nc2nc3c(s2)CS(=O)(=O)CC3)CC1 | 37 µM (≈ 17.8 µg/mL) | – | – | –
NC(=O)Cc1csc(NC(=O)[C@H]2CC[C@@H](n3cnc4c(N)nc(Cl)nc43)CC2)n1 | 6 µM (≈ 2.61 µg/mL) | – | – | –
